For orientation: GI50 means the concentration that inhibits growth by half. As a reminder, the TGI is the concentration giving total growth inhibition.

Values joined by “and” are separate entries in the source; they are usually repeats but may differ in a detail not shown here. Equal entries are not always repeated.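 Each compound was tested at five concentrations against cells in 96-well plates for 48 hours. GI50 is the concentration that inhibits growth by half. TGI: concentration producing complete growth inhibition.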 Some results are limits rather than exact numbers.

This is an account of results in PubChem BioAssay (NCI).

Some test systems named below: SK-MEL-2 melanoma; A549 NSCLC; M14 melanoma; LOX IMVI melanoma; HOP-92 NSCLC; HS 578T breast; RXF 393 renal; MDA-MB-435; OVCAR-8 ovarian; IGROV1 ovarian.
Common to all, as to assay: DTP human tumour cell line panel, 48 h

As for `COc1cc2c3c(n(CCCN)c(=O)c2cc1OC)-c1ccc([N+](=O)[O-])cc1C3=O`, the GI50 in the assay on SK-MEL-2 melanoma is 0.0173 µM; in the assay with A549 NSCLC, 9.88 µM; in the assay on M14 melanoma, 5.77 µM; in the assay on LOX IMVI melanoma, 2.28 µM; in the assay on HOP-92 NSCLC, 10.5 µM; in the assay with HS 578T breast, 22.5 µM. Also, the results for the GI50 with RXF 393 renal, in the assay with MDA-MB-435 and in the assay on OVCAR-8 ovarian were 19.2 µM, 15.9 µM and 2 µM, respectively. The total growth inhibition concentration (TGI) in the assay on SK-MEL-2 melanoma was determined as 5.19 µM; in the assay with A549 NSCLC it was 34.7 µM; with M14 melanoma it was 19.4 µM; in the assay on LOX IMVI melanoma it was 16.6 µM; in the assay on HOP-92 NSCLC it was 30.5 µM; in the assay on HS 578T breast, 46.1 µM. The TGI worked out at 43.7 µM in the assay with RXF 393 renal, 37.5 µM with MDA-MB-435 and 5.41 µM in the assay on OVCAR-8 ovarian.
On to `N#C/C(=C/C=C/c1ccco1)C(N)=O`, for which the TGI with SK-MEL-2 melanoma, in the assay with M14 melanoma, in the assay on LOX IMVI melanoma, with HS 578T breast, in the assay with IGROV1 ovarian and in the assay on RXF 393 renal was above 10 µM in each case. Besides, the TGI with MDA-MB-435 and in the assay with OVCAR-8 ovarian was above 10 µM in each case.
Consider `C=C(C)[C@@H]1CCC=C2CC[C@]3(C)[C@H](CC[C@@H]4[C@@]5(C)CCCNC(C)(C)[C@@H]5CC[C@]43C)[C@H]21`, for which the GI50 with SK-MEL-2 melanoma is 2.34 µM; in the assay with A549 NSCLC, 2.04 µM; in the assay with M14 melanoma, 1.73 µM; in the assay with HS 578T breast it was 2.01 µM; in the assay with IGROV1 ovarian, 1.91 µM; with RXF 393 renal it was 1.63 µM. For the same compound, the GI50 with MDA-MB-435 was 1.66 µM. Further, the TGI with SK-MEL-2 melanoma was 5.5 µM; with A549 NSCLC, 3.86 µM; in the assay with M14 melanoma, 3.34 µM; in the assay on HS 578T breast, 4.87 µM; in the assay on IGROV1 ovarian it was 3.54 µM; in the assay with RXF 393 renal, 3.13 µM. Further, the TGI with MDA-MB-435 worked out at 3.11 µM.
As for `O=C(O)C[C@H](O)C[C@H](O)/C=C/c1c(C2CC2)nc2ccccc2c1-c1ccc(F)cc1`, the GI50 in the assay on SK-MEL-2 melanoma was 4.06 µM; in the assay with A549 NSCLC, > 100 µM and 18.7 µM; with M14 melanoma it was 5.34 µM and 4.38 µM; with LOX IMVI melanoma, 1.33 µM; in the assay on HS 578T breast, 6.45 µM and 2.1 µM; in the assay on IGROV1 ovarian, 5.25 µM and 3.6 µM. Besides, the GI50 in the assay with MDA-MB-435 was 14.6 µM and 6.04 µM; in the assay on OVCAR-8 ovarian, 7.63 µM and 2.17 µM. Besides, the TGI with SK-MEL-2 melanoma was above 100 µM; in the assay with A549 NSCLC, above 100 µM; with M14 melanoma, above 100 µM; in the assay with LOX IMVI melanoma it was 13.9 µM; in the assay with HOP-92 NSCLC, 0.227 µM and 0.0622 µM; with HS 578T breast, above 100 µM. The TGI is 43.5 µM and > 100 µM in the assay with IGROV1 ovarian; above 100 µM in the assay with MDA-MB-435; above 100 µM in the assay with OVCAR-8 ovarian.
As for `CCOc1ccc2c(-c3ccnc(Nc4cc(OC)cc(C(F)(F)F)c4)n3)cnn2n1`, the GI50 in the assay on SK-MEL-2 melanoma was above 25 µM; in the assay with A549 NSCLC, above 14.7 µM; in the assay with M14 melanoma, above 25 µM; with LOX IMVI melanoma it was 15.7 µM; in the assay with HS 578T breast it was above 17.4 µM; with IGROV1 ovarian, 4.87 µM. The figures for the GI50 in the assay on RXF 393 renal, with MDA-MB-435 and in the assay with OVCAR-8 ovarian were 10.8 µM, 0.903 µM and above 15.4 µM, respectively. Also, the TGI in the assay on SK-MEL-2 melanoma, in the assay with A549 NSCLC, in the assay with M14 melanoma, in the assay on LOX IMVI melanoma, in the assay with HS 578T breast and in the assay with IGROV1 ovarian was above 25 µM in each case. The TGI in the assay on RXF 393 renal is above 23.6 µM; in the assay on MDA-MB-435, above 10.5 µM; in the assay with OVCAR-8 ovarian, above 25 µM.
With `O=S(=O)(NC1CCCCC1)c1ccc2c(c1)OCCOCCOCCOCCO2`, the TGI with A549 NSCLC, in the assay with M14 melanoma, in the assay with LOX IMVI melanoma, in the assay on HS 578T breast, in the assay on IGROV1 ovarian and with MDA-MB-435 was above 100 µM each time. Also, the TGI in the assay with OVCAR-8 ovarian is above 100 µM.
Turning to `CCC1(O)CC(OC2CC(N(C)C)C(OC3CC(O)C(OC4OC(C)C(=O)C=C4N)C(C)O3)C(C)O2)c2c(cc3c(c2O)C(=O)c2c(O)cccc2C3=O)C1C(=O)OC` (configuration not stated), the TGI in the assay with SK-MEL-2 melanoma is 0.104 µM and 0.0118 µM; in the assay on A549 NSCLC it was 1.63 µM; in the assay with M14 melanoma, 0.656 µM; in the assay with LOX IMVI melanoma, 1.48 µM and 1.56 µM; in the assay on HOP-92 NSCLC it was 1.41 µM and 2.8 µM; with HS 578T breast, 0.594 µM and 4.1 µM. Also, the TGI with MDA-MB-435 was 0.282 µM and 0.05 µM; in the assay with OVCAR-8 ovarian it was 1.59 µM and 1.32 µM. Further, the GI50 is 0.0377 µM in the assay on HOP-92 NSCLC and 0.0579 µM in the assay on HS 578T breast.
On to `CCCn1c2c(c3c(O)cccc31)C(=O)c1ccccc1-2`, for which the GI50 with SK-MEL-2 melanoma is 87 µM; in the assay with A549 NSCLC, 21.8 µM; with M14 melanoma it was 60.6 µM; in the assay with LOX IMVI melanoma, 31.6 µM; in the assay on HS 578T breast it was 33.1 µM; in the assay on IGROV1 ovarian, 10.9 µM. For the same compound, the GI50 is above 100 µM in the assay with MDA-MB-435 and 22.5 µM with OVCAR-8 ovarian. Moreover, the TGI in the assay with SK-MEL-2 melanoma, with A549 NSCLC, with M14 melanoma, in the assay on LOX IMVI melanoma, in the assay on HS 578T breast and in the assay with IGROV1 ovarian was above 100 µM in each case. The TGI with MDA-MB-435 and with OVCAR-8 ovarian was above 100 µM throughout.
Take `Cc1ccc(/C=C(\C#N)c2cc3ccccc3n2C)cc1`: the GI50 was 0.463 µM in the assay with A549 NSCLC; 0.268 µM in the assay on M14 melanoma; 0.542 µM with LOX IMVI melanoma; 1.13 µM in the assay on HOP-92 NSCLC; 0.448 µM in the assay on HS 578T breast; 0.544 µM with IGROV1 ovarian. The concentration for 50% growth inhibition (GI50) is 0.172 µM with RXF 393 renal, 0.0502 µM with MDA-MB-435 and 0.565 µM with OVCAR-8 ovarian. The TGI with A549 NSCLC, in the assay on M14 melanoma, with LOX IMVI melanoma, in the assay with HOP-92 NSCLC, in the assay on HS 578T breast and in the assay with IGROV1 ovarian was above 100 µM in each case. In addition, the concentration for total growth inhibition (TGI) was 0.565 µM in the assay on RXF 393 renal, 0.334 µM in the assay on MDA-MB-435 and above 100 µM in the assay on OVCAR-8 ovarian.
Take `O=C(Oc1cccc(Cl)c1)c1ccccc1Nc1ccnc(C(F)(F)F)c1`: the GI50 in the assay on SK-MEL-2 melanoma was 15.7 µM; in the assay on A549 NSCLC, 18.1 µM; with M14 melanoma, 1.77 µM; in the assay on HOP-92 NSCLC it was 8.74 µM; in the assay on HS 578T breast, 20.8 µM; in the assay on IGROV1 ovarian, 15.2 µM. Also, the GI50 was 3.04 µM in the assay with MDA-MB-435 and 3.52 µM in the assay on OVCAR-8 ovarian. Besides, the concentration for total growth inhibition (TGI) was above 100 µM with SK-MEL-2 melanoma; 55.1 µM in the assay with A549 NSCLC; 4.46 µM in the assay with M14 melanoma; 32.1 µM in the assay on HOP-92 NSCLC; 61 µM in the assay with HS 578T breast; above 100 µM in the assay with IGROV1 ovarian. Further, the values for the concentration for total growth inhibition (TGI) in the assay on MDA-MB-435 and in the assay on OVCAR-8 ovarian were 10.7 µM and 18.1 µM, respectively.
